We go through 19 molecules from publication PMC7007966 (Journal of medicinal chemistry, 2019).

Each structure is given as a SMILES string. Entries after “also recorded” stand apart in the source; their conditions may differ.

In assay [1] the target is T1, rat DOR (C6-DOR membranes) (Rattus norvegicus, UniProt P33533). Kind of assay: [35S]-GTPγS binding assay. In kind it is biochemical. The following applies: for DOR efficacy (in words): [35S]-GTPγS stimulation relative to DPDPE at 10 μM.
The target of assay [2] is T2, rat MOR (C6-MOR membranes) (Rattus norvegicus, UniProt P33535). Kind of assay: [35S]-GTPγS binding assay. The following applies: [35S]-GTPγS stimulation relative to DAMGO. In kind it is biochemical. (GTPγS resists hydrolysis and so accumulates on activated G proteins.)
Assay [3] deals with T3, human KOR (CHO-KOR membranes) (Homo sapiens, UniProt P41145). The assay can be described thus: [35S]-GTPγS binding assay. In kind it is biochemical. The following applies: [35S]-GTPγS stimulation relative to U69,593 at 10 μM.
In assay [4] the target is T3, human KOR (CHO-KOR membranes). The assay can be described thus: Radioligand competition binding, [3H]-diprenorphine displacement. As to conditions: competitive displacement of [3H]-diprenorphine, membrane preparations. Background: Displacement assays read how much labelled ligand stays bound in the presence of the test substance.
The target in assay [5] is T2, rat MOR (C6-MOR membranes). The assay is described as above. As to conditions: ratio of binding affinities; 1A-D, 2B, 2D previously reported compounds.
Assay [6] deals with T1, rat DOR (C6-DOR membranes). As to conditions: [35S]-GTPγS stimulation relative to DPDPE; cited from earlier work.

As for `CC(=O)N1CC[C@@H](NC(=O)[C@@H](N)Cc2c(C)cc(O)cc2C)c2cc(Cc3cnc4ccccc4c3)ccc21.O=C(O)C(F)(F)F` [Compound 2C], the “DOR efficacy (in words)” value in assay [1] is “significant efficacy at DOR”.
With `Cc1cc(O)cc(C)c1C[C@H](N)C(=O)N[C@@H]1CCN(C(=O)c2ccccc2)c2ccc(Cc3ccc4ccccc4c3)cc21.O=C(O)C(F)(F)F` [Compound 5B], the “MOR efficacy (in words)” value in assay [2] is “partial MOR efficacy”.
In the case of `Cc1cc(O)cc(C)c1C[C@H](N)C(=O)N[C@@H]1CCN(S(C)(=O)=O)c2ccc(CN3CCc4ccccc4C3)cc21.O=C(O)C(F)(F)F` [Compound 4D], in assay [3], the “KOR efficacy (in words)” value is “relatively high KOR affinity and efficacy”. Moreover, the “KOR affinity (in words)” value in assay [4] was “relatively high KOR affinity”.
`Cc1cc(O)cc(C)c1C[C@H](N)C(=O)N[C@@H]1CCN(C(=O)c2ccccc2)c2ccc(Cc3ccc4c(c3)OCCO4)cc21.O=C(O)C(F)(F)F` [Compound 5E]: the “MOR efficacy (in words)” value in assay [2] is listed as “no significant MOR efficacy”.
Consider `Cc1cc(O)cc(C)c1C[C@H](N)C(=O)N[C@@H]1CCNc2ccc(Cc3ccc4ccccc4c3)cc21.O=C(O)C(F)(F)F` [Compound 1B], for which the “selectivity for MOR over DOR (DOR Ki/MOR Ki)” value in assay [5] is 100 fold.
For the molecule `CC(=O)N1CC[C@@H](NC(=O)[C@@H](N)Cc2c(C)cc(O)cc2C)c2cc(Cc3cc4ccccc4o3)ccc21.O=C(O)C(F)(F)F` [Compound 2F], the “MOR efficacy (in words)” value in assay [2] is “MOR agonists”. Also, the “DOR efficacy (in words)” value in assay [1] was “significant efficacy at DOR; also recorded: DOR partial agonists”.
As for `Cc1cc(O)cc(C)c1C[C@H](N)C(=O)N[C@@H]1CCN(C(=O)C2CC2)c2ccc(Cc3cnc4ccccc4c3)cc21.O=C(O)C(F)(F)F` [Compound 3C], the “DOR agonist potency (in words)” value in assay [1] ([35S]-GTPγS stimulation) was “subnanomolar”. Further, the “DOR efficacy (in words)” value in assay [1] is recorded as “significant efficacy at DOR”.
For `Cc1cc(O)cc(C)c1C[C@H](N)C(=O)N[C@@H]1CCN(C(=O)C2CC2)c2ccc(Cc3cc4ccccc4o3)cc21.O=C(O)C(F)(F)F` [Compound 3F], the “MOR efficacy (in words)” value in assay [2] was “MOR agonists”. Besides, the “DOR efficacy (in words)” value in assay [1] is listed as “significant efficacy at DOR; also recorded: DOR partial agonists”.
As for `CC(=O)N1CC[C@@H](NC(=O)[C@@H](N)Cc2c(C)cc(O)cc2C)c2cc(Cc3ccccc3)ccc21.O=C(O)C(F)(F)F` [Compound 2A], the “DOR efficacy (in words), previously reported compounds” value in assay [6] was “significant efficacy at DOR”.
As to `Cc1cc(O)cc(C)c1C[C@H](N)C(=O)N[C@@H]1CCN(S(C)(=O)=O)c2ccc(Cc3ccccc3)cc21.O=C(O)C(F)(F)F` [Compound 4A], the “DOR efficacy (in words)” value in assay [1] is given as “partial DOR agonism”.
As for `Cc1cc(O)cc(C)c1C[C@H](N)C(=O)N[C@@H]1CCNc2ccc(Cc3cc4ccccc4o3)cc21.O=C(O)C(F)(F)F` [Compound 1F], in assay [2], the “MOR efficacy (in words)” value is recorded as “MOR agonists”. Also, the “DOR efficacy (in words)” value in assay [1] is reported as “DOR antagonists”.
As for `Cc1cc(O)cc(C)c1C[C@H](N)C(=O)N[C@@H]1CCN(S(C)(=O)=O)c2ccc(Cc3cc4ccccc4o3)cc21.O=C(O)C(F)(F)F` [Compound 4F], the “MOR efficacy (in words)” value in assay [2] is reported as “MOR agonists”. In addition, the “DOR efficacy (in words)” value in assay [1] is reported as “DOR antagonists”.
Consider `Cc1cc(O)cc(C)c1C[C@H](N)C(=O)N[C@@H]1CCN(C(=O)C2CC2)c2ccc(Cc3ccccc3)cc21.O=C(O)C(F)(F)F` [Compound 3A], for which, in assay [1], the “DOR efficacy (in words)” value is “significant efficacy at DOR”.
In the case of `CC(=O)N1CC[C@@H](NC(=O)[C@@H](N)Cc2c(C)cc(O)cc2C)c2cc(Cc3ccc4ccccc4c3)ccc21.O=C(O)C(F)(F)F` [Compound 2B], in assay [6], the “DOR efficacy (in words), previously reported compounds” value was “DOR antagonist profile”.
`Cc1cc(O)cc(C)c1C[C@H](N)C(=O)N[C@@H]1CCN(C(=O)c2ccccc2)c2ccc(Cc3cnc4ccccc4c3)cc21.O=C(O)C(F)(F)F` [Compound 5C]: the “MOR efficacy (in words)” value in assay [2] was “partial MOR efficacy”.
Turning to `CC(=O)N1CC[C@@H](NC(=O)[C@@H](N)Cc2c(C)cc(O)cc2C)c2cc(CN3CCc4ccccc4C3)ccc21.O=C(O)C(F)(F)F` [Compound 2D], in assay [3], the “KOR efficacy (in words)” value was “relatively high KOR affinity and efficacy”. Further, the “KOR affinity (in words)” value in assay [4] is “relatively high KOR affinity”.
`Cc1cc(O)cc(C)c1C[C@H](N)C(=O)N[C@@H]1CCNc2ccc(Cc3ccccc3)cc21.O=C(O)C(F)(F)F` [Compound 1A]: the “DOR efficacy (in words), previously reported compounds” value in assay [6] is “low DOR agonist activity”.
As to `Cc1cc(O)cc(C)c1C[C@H](N)C(=O)N[C@@H]1CCN(C(=O)C2CC2)c2ccc(Cc3ccc4ccccc4c3)cc21.O=C(O)C(F)(F)F` [Compound 3B], in assay [1], the “DOR efficacy (in words)” value is on record as “significant efficacy at DOR”.
For `Cc1cc(O)cc(C)c1C[C@H](N)C(=O)N[C@@H]1CCN(C(=O)c2ccccc2)c2ccc(Cc3cc4ccccc4o3)cc21.O=C(O)C(F)(F)F` [Compound 5F], in assay [2], the “MOR efficacy (in words)” value is “MOR partial agonist”. Moreover, the “DOR efficacy (in words)” value in assay [1] is given as “DOR antagonist”.
